Several values for one entry are separate records, joined by “and”; a condition that tells them apart may be missing. Equal values may be shown once. Read-outs that look alike come from different tables or passages of the source.

Results on twelve molecules are retold here after paper PMC2893389 (Biochemistry, 2010).

Data set [1] has as its target T1, WT rat cPEPCK (Rattus norvegicus, UniProt P07379).
T1 sequence (P07379 1-622): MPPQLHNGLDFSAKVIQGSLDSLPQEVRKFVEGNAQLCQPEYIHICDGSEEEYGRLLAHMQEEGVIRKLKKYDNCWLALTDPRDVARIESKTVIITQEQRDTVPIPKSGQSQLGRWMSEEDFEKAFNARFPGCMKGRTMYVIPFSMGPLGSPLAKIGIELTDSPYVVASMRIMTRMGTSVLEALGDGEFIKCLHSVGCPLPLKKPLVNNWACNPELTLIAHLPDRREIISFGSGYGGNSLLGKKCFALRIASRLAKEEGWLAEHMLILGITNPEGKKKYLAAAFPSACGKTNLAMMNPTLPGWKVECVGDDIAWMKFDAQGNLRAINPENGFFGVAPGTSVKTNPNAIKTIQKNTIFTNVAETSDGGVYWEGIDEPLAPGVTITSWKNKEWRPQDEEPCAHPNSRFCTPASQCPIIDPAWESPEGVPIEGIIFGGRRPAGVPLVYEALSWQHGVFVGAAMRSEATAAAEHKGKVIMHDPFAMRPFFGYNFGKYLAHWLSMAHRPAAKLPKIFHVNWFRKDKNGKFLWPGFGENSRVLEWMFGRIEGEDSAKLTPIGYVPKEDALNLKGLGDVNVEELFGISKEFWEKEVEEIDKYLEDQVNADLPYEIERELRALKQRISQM
The experiment in a line: Assay B: PEP+GDP+CO2→OAA+GTP, coupled MDH assay. It counts as biochemical. Conditions: Wild-type, 25 °C.

In data set [2] the target is T2, A467G PEPCK (rat cPEPCK mutant) (Rattus norvegicus, UniProt P07379, A467G).
T2 sequence (P07379 1-622 A467G): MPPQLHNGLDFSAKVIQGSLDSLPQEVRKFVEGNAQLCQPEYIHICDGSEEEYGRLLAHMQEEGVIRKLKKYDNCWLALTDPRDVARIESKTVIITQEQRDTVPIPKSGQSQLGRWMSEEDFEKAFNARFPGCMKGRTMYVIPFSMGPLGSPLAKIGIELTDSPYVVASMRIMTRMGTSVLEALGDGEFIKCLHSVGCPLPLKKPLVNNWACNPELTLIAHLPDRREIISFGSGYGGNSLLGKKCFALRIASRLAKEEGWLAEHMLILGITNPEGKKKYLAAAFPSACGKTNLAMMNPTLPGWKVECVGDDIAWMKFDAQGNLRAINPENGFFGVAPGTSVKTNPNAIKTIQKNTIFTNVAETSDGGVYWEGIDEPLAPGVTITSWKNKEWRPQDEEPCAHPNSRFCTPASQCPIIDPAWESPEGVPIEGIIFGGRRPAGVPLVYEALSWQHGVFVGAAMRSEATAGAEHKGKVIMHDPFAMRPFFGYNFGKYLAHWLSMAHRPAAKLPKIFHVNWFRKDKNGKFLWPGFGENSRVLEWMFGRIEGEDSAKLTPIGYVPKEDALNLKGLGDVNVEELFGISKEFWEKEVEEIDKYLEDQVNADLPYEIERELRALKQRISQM
The experiment in a line: Assay B: PEP+GDP+CO2→OAA+GTP, coupled MDH assay. It counts as biochemical.

Data set [3] addresses T2, A467G PEPCK (rat cPEPCK mutant). The experiment in a line: Assay A: OAA+GTP→PEP+CO2+GDP, coupled PK/LDH assay. It counts as biochemical.
Data set [4] concerns the target T1, WT rat cPEPCK. The experiment in a line: Assay C: OAA+GTP→pyruvate+GTP+CO2. It counts as biochemical. The conditions noted are these: WT PEPCK; GTPγS in place of GTP.
The target in data set [5] is T1, WT rat cPEPCK. The experiment in a line: Assay A: OAA+GTP→PEP+CO2+GDP, coupled PK/LDH assay. The class given is biochemical.
The target in data set [6] is T2, A467G PEPCK (rat cPEPCK mutant). The experiment in a line: Assay D: OAA+GDP→pyruvate+GDP+CO2. It counts as biochemical.
Data set [7] deals with T1, WT rat cPEPCK. The experiment in a line: Inhibitor assays with substrate analogues.
The target in data set [8] is T2, A467G PEPCK (rat cPEPCK mutant). Put plainly: Inhibitor assays with substrate analogues. Conditions: for change in affinity, A467G vs WT: from Ki values of the inhibition experiments.
Data set [9] has as its target PEPCK. Conditions: pyruvate only weakly associates with PEPCK; cited from earlier work.
Substrate in data set [10]: O=C(O)CC(=O)C(=O)O
The experiment in a line: purified protein, by the assay type. It counts as biochemical, rat. Conditions: OAA + GDP → Pyruvate + GDP + CO2, 25 °C.

The mark [11] stands for this setting: WT PEPCK, slow substrate GTPγS in place of GTP, OAA→PEP.

As to `O=C=O` [CO2], the Michaelis-Menten constant (Km) was 1.19 ± 0.109 mM in data set [1] (labelled substrate varied) and 814 ± 98 µM in data set [2] (A467G, PEP + CO2 + GDP → OAA + GTP, 25 °C, labelled substrate varied).

Consider `Nc1nc2c(ncn2[C@@H]2O[C@H](COP(=O)(O)OP(=O)(O)O)[C@@H](O)[C@H]2O)c(=O)[nH]1` [GDP, guanosine-5′-diphosphate], for which the “kcat/KM of A467G as % of WT” value in data set [2] (assay B, PEP→OAA) worked out at 3%.

Regarding `Nc1nc2c(ncn2[C@@H]2O[C@H](COP(=O)(O)OP(=O)(O)OP(=O)(O)O)[C@@H](O)[C@H]2O)c(=O)[nH]1` [GTP, guanosine-5′-triphosphate], in data set [3] (assay A, OAA→PEP), the “change in KM, A467G vs WT (factor)” value is recorded as 1.4 and the “decrease in kcat/KM, A467G vs WT” value was “less than a factor of three”.

With `Nc1nc2c(ncn2[C@@H]2O[C@H](COP(=O)(O)OP(=O)(O)OP(O)(O)=S)[C@@H](O)[C@H]2O)c(=O)[nH]1` [GTPγS, guanosine 5′-O-[gamma-thio]triphosphate], the “pyruvate formation during the OAA→PEP reaction” value in data set [4] is listed as “did not observe any pyrvuate formation”. Further, in data set [5] (setting [11]), the Km worked out at 39 µM and the kcat amounted to 13 s⁻¹.

Regarding `O=C(O)CC(=O)C(=O)O` [OAA, oxaloacetic acid], the “kcat/KM of A467G as % of WT” value in data set [3] (assay A, OAA→PEP) was 1.9% and 2%. In addition, in [3] (assay A, OAA→PEP, higher in A467G), the “KM of A467G relative to WT” value is recorded as 14 fold. The “efficiency of WT relative to A467G at catalyzing decarboxylation of OAA” value in data set [6] was determined as 20 fold.

In the case of `C=C(OP(=O)(O)O)C(=O)O` [PEP, phosphoenolpyruvate], in data set [2] (assay B, PEP→OAA), the “KM of A467G as % of WT” value was 21% and ~ 21%; the “reduction in catalytic efficiency of A467G relative to WT” value is given as “factor of four”.

`O=C(O)COP(=O)(O)O` [PGA, 2-phosphoglycolate] had an inhibition constant Ki in data set [7] (Wild-type, assay B, against PEP, 25 °C) of 2530 ± 13 µM. Further, the “change in affinity, A467G vs WT” value in data set [8] is “increases by less than a factor of two”.

On to `O=C(O)C(=O)O` [oxalate], for which the affinity in data set [7], expressed as Ki, was 106 ± 6 µM. Also, the “change in affinity, A467G vs WT” value in data set [8] is “approximately a factor of eight”. Further, the “loss in binding energy / decreased stabilization in A467G vs WT” value in data set [8] (from oxalate Ki, extrapolated to the enolate intermediate) was ~ 5.3 kJ mol^−1.

Regarding `CC(=O)C(=O)O` [pyruvate], the Ki in data set [9] is 9 mM.

`O=C(O)C(=O)CS(=O)(=O)O` [βSP, 3-sulfopyruvate] came in with an inhibition constant Ki in data set [7] (Wild-type, assay A, against OAA, competitive (slope) Ki, 25 °C) of 26 ± 1 µM. In addition, the “change in affinity, A467G vs WT” value in [8] was “factor of approximately two”.

B1: WT rat cPEPCK (Rattus norvegicus) (protein)
chain: MPPQLHNGLDFSAKVIQGSLDSLPQEVRKFVEGNAQLCQPEYIHICDGSEEEYGRLLAHMQEEGVIRKLKKYDNCWLALTDPRDVARIESKTVIITQEQRDTVPIPKSGQSQLGRWMSEEDFEKAFNARFPGCMKGRTMYVIPFSMGPLGSPLAKIGIELTDSPYVVASMRIMTRMGTSVLEALGDGEFIKCLHSVGCPLPLKKPLVNNWACNPELTLIAHLPDRREIISFGSGYGGNSLLGKKCFALRIASRLAKEEGWLAEHMLILGITNPEGKKKYLAAAFPSACGKTNLAMMNPTLPGWKVECVGDDIAWMKFDAQGNLRAINPENGFFGVAPGTSVKTNPNAIKTIQKNTIFTNVAETSDGGVYWEGIDEPLAPGVTITSWKNKEWRPQDEEPCAHPNSRFCTPASQCPIIDPAWESPEGVPIEGIIFGGRRPAGVPLVYEALSWQHGVFVGAAMRSEATAAAEHKGKVIMHDPFAMRPFFGYNFGKYLAHWLSMAHRPAAKLPKIFHVNWFRKDKNGKFLWPGFGENSRVLEWMFGRIEGEDSAKLTPIGYVPKEDALNLKGLGDVNVEELFGISKEFWEKEVEEIDKYLEDQVNADLPYEIERELRALKQRISQM
For the molecule B1, in data set [5] (Wild-type, OAA + GTP → PEP + GDP + CO2, 25 °C), the kcat came out at 54 ± 0.2 s⁻¹. Further, the turnover number (kcat) in data set [1] stood at 19 ± 0.8 s⁻¹. In addition, in [10] (other: Wild-type), the Michaelis constant (Km) came out at 117 ± 11 µM, the kcat was 2.3 ± 0.1 s⁻¹ and the kcat/Km was 20000 M⁻¹ s⁻¹.

B2: A467G PEPCK (rat cPEPCK mutant) (Rattus norvegicus; A467G) (protein)
chain: MPPQLHNGLDFSAKVIQGSLDSLPQEVRKFVEGNAQLCQPEYIHICDGSEEEYGRLLAHMQEEGVIRKLKKYDNCWLALTDPRDVARIESKTVIITQEQRDTVPIPKSGQSQLGRWMSEEDFEKAFNARFPGCMKGRTMYVIPFSMGPLGSPLAKIGIELTDSPYVVASMRIMTRMGTSVLEALGDGEFIKCLHSVGCPLPLKKPLVNNWACNPELTLIAHLPDRREIISFGSGYGGNSLLGKKCFALRIASRLAKEEGWLAEHMLILGITNPEGKKKYLAAAFPSACGKTNLAMMNPTLPGWKVECVGDDIAWMKFDAQGNLRAINPENGFFGVAPGTSVKTNPNAIKTIQKNTIFTNVAETSDGGVYWEGIDEPLAPGVTITSWKNKEWRPQDEEPCAHPNSRFCTPASQCPIIDPAWESPEGVPIEGIIFGGRRPAGVPLVYEALSWQHGVFVGAAMRSEATAGAEHKGKVIMHDPFAMRPFFGYNFGKYLAHWLSMAHRPAAKLPKIFHVNWFRKDKNGKFLWPGFGENSRVLEWMFGRIEGEDSAKLTPIGYVPKEDALNLKGLGDVNVEELFGISKEFWEKEVEEIDKYLEDQVNADLPYEIERELRALKQRISQM
For B2, in data set [3] (A467G, OAA + GTP → PEP + GDP + CO2, 25 °C), the catalytic constant (kcat) amounted to 14 ± 0.1 s⁻¹. Further, in data set [10] (other: A467G), the Km was found to be 970 ± 118 µM, the kcat worked out at 1.3 ± 0.1 s⁻¹ and the kcat/Km turned out to be 1000 M⁻¹ s⁻¹. The catalytic constant (kcat) in data set [2] (A467G, PEP + CO2 + GDP → OAA + GTP, 25 °C) stood at 1 ± 0.1 s⁻¹.

The Km is the concentration of substrate that gives half-maximal velocity. What is called kcat is the number of substrate molecules converted per active site and unit of time at saturation. As usually defined, the Ki is a dissociation constant, usually derived from enzyme kinetics or from competition with a known ligand. A word on the kcat/Km: it is the turnover number divided by the Michaelis constant.
